Among the data in paper PMC4868058, “A critical role for the Drosophila dopamine D1-like receptor Dop1R2 at the onset of metamorphosis” (BMC Developmental Biology, 2016) are EC50 and IC50 values, retold here.

Molecules are shown by their SMILES. Structures can show the parent of a compound that is named as a salt.

The target of test [1] is T1, Dop1R2 (Drosophila melanogaster, UniProt Q24563).
T1 construct: receptor cDNA in pcDNA1.1, transiently expressed in HEK293 with CRE-luciferase reporter
T1 sequence (Q24563 1-539): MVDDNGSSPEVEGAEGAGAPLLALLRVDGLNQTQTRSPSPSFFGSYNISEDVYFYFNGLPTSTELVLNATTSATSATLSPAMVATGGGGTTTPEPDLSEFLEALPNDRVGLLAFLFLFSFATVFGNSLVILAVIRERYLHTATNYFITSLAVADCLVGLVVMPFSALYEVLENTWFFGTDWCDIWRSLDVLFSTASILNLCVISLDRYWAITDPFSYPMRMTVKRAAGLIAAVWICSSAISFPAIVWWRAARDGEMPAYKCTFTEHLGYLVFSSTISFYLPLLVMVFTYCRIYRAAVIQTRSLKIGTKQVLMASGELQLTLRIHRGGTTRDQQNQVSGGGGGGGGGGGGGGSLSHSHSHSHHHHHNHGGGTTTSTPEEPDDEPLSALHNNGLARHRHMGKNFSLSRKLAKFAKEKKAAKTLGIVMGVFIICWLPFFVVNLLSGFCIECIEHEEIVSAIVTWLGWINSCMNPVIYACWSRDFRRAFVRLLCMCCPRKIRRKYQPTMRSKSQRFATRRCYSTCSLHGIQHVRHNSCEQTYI
Nature of the test: CRE-luciferase reporter assay in transfected HEK293 cells. The class given is cell-based. In general terms: In a reporter assay the amount or activity of a reporter protein is the signal.

The target of test [2] is T1, Dop1R2. Described as above. The class given is cell-based. The source holds these as a separate data set.

As usually defined, the EC50 is the concentration at which the effect is half-maximal. Low values mean a more potent agent, high ones a less potent agent. In turn, `NCCc1ccc(O)c(O)c1` [dopamine hydrochloride] yielded an EC50 on Dop1R2 [1] of 270 nM.
By IC50 is commonly meant the concentration needed to halve the response being measured. Low readings indicate greater potency, high ones weaker potency. In turn, `OCCN1CCN(CCC=C2c3ccccc3Sc3ccc(C(F)(F)F)cc32)CC1` [flupenthixol dihydrochloride] had an IC50 against Dop1R2 [2] of 260 nM.
